Measurements reported in US20080021026A1, “BENZOTHIOPHENE INHIBITORS OF RHO KINASE” (priority 2006, published 2008).
Where two headings read alike, the source gives them in different places.

Tests used:
[1] = molecular target: T1, recombinant N-terminal GST-tagged human Rho kinase 1 (ROCK1, amino acids 1-535) (Homo sapiens, UniProt Q13464); test: In vitro Rho kinase assay (luciferase-based ATP consumption), ROCK1; type: biochemical
T1 construct: ROCK1, amino acids 1-535; purchased Invitrogen Inc. PV-3691
In short: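 ATP depletion measured by firefly luciferase luminescence after 2 h at 30 °C, with inhibition raising signal and activity expressed relative to H-1152P. Reaction: 0.82 μg/ml recombinant GST-tagged ROCK1 (aa 1-535), S6 peptide 100 μg/ml, […], pH 7.5 Tris buffer.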

[2] = tested on: lasered (hypertensive) eyes of conscious cynomolgus monkeys; test: Acute IOP response in lasered (hypertensive) eyes of conscious cynomolgus monkeys; type: in vivo; conditions: instilled in right eye, IOP measured at 1, 3 and 6 hours, peak reduction; for Peak % Lowering of IOP vs. Control at 0.3%: compound concentration 0.3%
Excerpt: Acute IOP Response in Lasered (Hypertensive) Eyes of Conscious Cynomolgus Monkeys
Intraocular pressure (IOP) can be determined with an Alcon Pneumatonometer after light corneal anesthesia with 0.1% proparacaine. Eyes are washed with saline after each measurement. After a baseline IOP measurement, test compound is instilled in one […] aliquot to the right eyes only of nine cynomolgus monkeys. Vehicle is instilled in the right eyes of six additional animals. Subsequent IOP measurements are taken at 1, 3, and 6 hours, and peak reduction in IOP is reported below in Table 2 as percent of IOP lowering versus the control for each of the given concentrations of compound.
A more detailed description of the assay used herein may be found in May et al., “Evaluation of the Ocular Hypotensive Response of Serotonin 5-HT1A and 5-HT2 Receptor Ligands in Conscious Ocular Hypertensive Cynomolgus Monkeys,” J. of Pharmacology and Experimental Therapeutics, vol. 306(1), pp. 301-309 (2003), the disclosure of which is hereby incorporated by reference as if written herein in its entirety.

[3] = molecular target: T2, recombinant N-terminal GST-tagged human Rho kinase 2 (ROCK2, amino acids 1-552) (Homo sapiens, UniProt O75116); test: In vitro Rho kinase assay (luciferase-based ATP consumption), ROCK2; type: biochemical
T2 construct: ROCK2, amino acids 1-552; purchased Invitrogen Inc. PV3759
In short: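 Luciferase-based luminescence of leftover ATP after 2 h at 30 °C, where inhibition raises signal, reports activity of GST-tagged ROCK2 (aa 1-552) at 0.82 μg/ml. Conditions: S6 peptide 100 μg/ml, […], pH 7.5 Tris buffer. Results given as percent of H-1152P control activity.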

[4] = recombinant GST-tagged human ROCK1, luciferase-based ATP consumption, read-out: ROCK1 IC50
[5] = recombinant GST-tagged human ROCK2, luciferase-based ATP consumption, read-out: ROCK2 IC50

T2 sequence (O75116 1-552): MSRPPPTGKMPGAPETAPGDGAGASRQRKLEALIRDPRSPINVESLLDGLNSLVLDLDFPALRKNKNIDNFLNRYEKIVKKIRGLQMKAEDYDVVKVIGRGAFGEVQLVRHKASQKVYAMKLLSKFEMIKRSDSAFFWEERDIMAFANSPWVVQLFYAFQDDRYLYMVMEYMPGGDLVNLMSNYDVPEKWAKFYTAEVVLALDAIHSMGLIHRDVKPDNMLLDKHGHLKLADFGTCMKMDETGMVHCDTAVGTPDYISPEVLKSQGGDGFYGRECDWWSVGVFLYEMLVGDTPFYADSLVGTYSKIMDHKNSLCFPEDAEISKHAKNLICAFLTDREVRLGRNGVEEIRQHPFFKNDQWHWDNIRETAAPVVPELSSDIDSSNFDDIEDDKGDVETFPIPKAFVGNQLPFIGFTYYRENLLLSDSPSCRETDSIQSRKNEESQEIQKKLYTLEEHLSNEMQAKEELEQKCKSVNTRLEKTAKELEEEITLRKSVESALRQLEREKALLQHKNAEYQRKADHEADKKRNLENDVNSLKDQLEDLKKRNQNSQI
T1 sequence (Q13464 1-535): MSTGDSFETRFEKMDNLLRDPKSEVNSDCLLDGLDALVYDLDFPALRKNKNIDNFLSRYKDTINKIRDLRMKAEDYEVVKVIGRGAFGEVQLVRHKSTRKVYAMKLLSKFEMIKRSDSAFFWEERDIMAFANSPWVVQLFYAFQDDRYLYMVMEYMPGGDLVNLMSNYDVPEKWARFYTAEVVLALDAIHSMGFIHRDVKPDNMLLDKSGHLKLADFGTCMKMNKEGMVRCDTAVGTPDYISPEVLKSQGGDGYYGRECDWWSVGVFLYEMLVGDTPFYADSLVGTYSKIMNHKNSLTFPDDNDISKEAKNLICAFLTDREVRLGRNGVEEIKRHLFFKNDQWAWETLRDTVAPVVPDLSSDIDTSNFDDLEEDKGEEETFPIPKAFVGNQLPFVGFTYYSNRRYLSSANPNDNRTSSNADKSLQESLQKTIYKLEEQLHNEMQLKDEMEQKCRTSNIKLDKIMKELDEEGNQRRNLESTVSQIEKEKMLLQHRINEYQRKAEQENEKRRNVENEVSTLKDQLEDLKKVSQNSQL

IC50 [1, 4] [µM]	IC50 [3, 5] [µM]	Compound	Peak % Lowering of IOP vs. Control at 0.3% [2] [%]	Peak % Lowering of IOP vs. Control at 1.0% ([2]; compound concentration 1.0%) [%]	IC50 ([1]; ROCK1 IC50, recombinant GST-tagged human ROCK1, luciferase-based ATP consumption) [µM]	IC50 ([3]; ROCK2 IC50, recombinant GST-tagged human ROCK2, luciferase-based ATP consumption) [µM]
< 5	< 5	COc1cccc(Cc2ccc3sc(-c4ccnc(N)n4)c(C)c3c2)c1 [Example 26, 4-(5-(3-Methoxybenzyl)-3-methylbenzo[b]thiophen-2-yl)pyrimidin-2-amine]	9.8	–	–	–
< 5	< 5	COc1cccc(Nc2ccc3sc(-c4ccnc(N)n4)c(C)c3c2)c1 [Example 51, 4-(5-(3-Methoxyphenylamino)-3-methylbenzo[b]thiophen-2-yl)pyrimidin-2-amine]	9.5	18.6	–	–
< 5	< 5	Cc1c(-c2ccnc(N)n2)sc2ccc(Cc3cccc(O)c3)cc12 [Example 27, 3-((2-(2-Aminopyrimidin-4-yl)-3-methylbenzo[b]thiophen-5-yl)methyl)phenol]	3.6	–	–	–
> 5	> 5	Cc1c(-c2ccnc(N)n2)sc2ccc(CNC(=O)CCc3ccccc3Br)cc12 [Example 303, Cc1c(sc2ccc(CNC(═O)CCc3ccccc3Br)cc12)-c4ccnc(N)n4]	–	–	–	–
< 5	< 5	CC(=O)Oc1ccc(C(=O)Nc2cccc(Nc3ccc4sc(-c5ccnc(N)n5)c(C)c4c3)c2)cc1 [Example 60, 4-(3-(2-(2-Aminopyrimidin-4-yl)-3-methylbenzo[b]thiophen-5-ylamino)phenylcarbamoyl)phenyl acetate]	–	–	–	–
> 5	< 5	Cc1ccccc1CCC(=O)NCc1ccc2sc(-c3ccnc(N)n3)c(C)c2c1 [Example 167, Cc1ccccc1CCC(═O)NCc2ccc3sc(c(C)c3c2)-c4ccnc(N)n4]	–	–	–	–
< 5	< 5	Cc1c(-c2ccnc(N)n2)sc2ccc(Nc3ccccc3)cc12 [Example 69, 4-(3-Methyl-5-(phenylamino)benzo[b]thiophen-2-yl)pyrimidin-2-amine]	–	–	–	–
< 5	< 5	CCc1c(-c2ccnc(N)n2)sc2ccc(Cl)cc12 [Example 16, 4-(5-Chloro-3-ethylbenzo[b]thiophen-2-yl)pyrimidin-2-amine]	–	–	–	–
< 5	< 5	Nc1nccc(-c2cc3ccccc3s2)n1 [Example 2, 4-(Benzo[b]thiophen-2-yl)pyrimidin-2-amine]	–	–	–	–
< 5	< 5	Cc1c(-c2ccnc(N)n2)sc2ccc(Nc3cccc(OCc4ccccc4)c3)cc12 [Example 55, 4-(5-(3-(Benzyloxy)phenylamino)-3-methylbenzo[b]thiophen-2-yl)pyrimidin-2-amine]	–	–	–	–
< 5	> 5	Cc1c(-c2ccnc(N)n2)sc2ccc(CNC(=O)C(CC(C)C)NC(=O)OC(C)(C)C)cc12 (stereo not shown) [Example 323, CC(C)C[C](NC(═O)OC(C)(C)C)C(═O)NCc1ccc2sc(c(C)c2c1)-c3ccnc(N)n3]	–	–	–	–
< 5	< 5	Cc1c(-c2ccnc(N)n2)sc2ccc(CNC(=O)c3ccc(C=O)cc3)cc12 [Example 130, Cc1c(sc2ccc(CNC(═O)c3ccc(C═O)cc3)cc12)-c4ccnc(N)n4]	–	–	–	–
< 5	< 5	COc1cccc(O)c1C(=O)NCc1ccc2sc(-c3ccnc(N)n3)c(C)c2c1 [Example 181, COc1cccc(O)c1C(═O)NCc2ccc3sc(c(C)c3c2)-c4ccnc(N)n4]	–	–	–	–
< 5	< 5	Cc1c(-c2ccnc(N)n2)sc2ccc(CNC(=O)c3cc(Cl)ccn3)cc12 [Example 151, Cc1c(sc2ccc(CNC(═O)c3cc(Cl)ccn3)cc12)-c4ccnc(N)n4]	–	–	–	–
> 5	< 5	Cc1c(-c2ccnc(N)n2)sc2ccc(CNC(=O)c3ccc(O)cc3O)cc12 [Example 144, Cc1c(sc2ccc(CNC(═O)c3ccc(O)cc3O)cc12)-c4ccnc(N)n4]	–	–	–	–
< 5	< 5	CCC(=O)C(=O)NCc1ccc2sc(-c3ccnc(N)n3)c(C)c2c1 [Example 99, CCC(═O)C(═O)NCc1ccc2sc(c(C)c2c1)-c3ccnc(N)n3]	–	–	–	–
< 5	> 5	Cc1c(-c2ccnc(N)n2)sc2ccc(CNC(=O)C3Cc4ccccc4CN3C(=O)OC(C)(C)C)cc12 (stereo not shown) [Example 327, Cc1c(sc2ccc(CNC(═O)[C]3Cc4ccccc4CN3C(═O)OC(C)(C)C)cc12)-c5ccnc(N)n5]	–	–	–	–
> 5	< 5	Cc1c(-c2ccnc(N)n2)sc2ccc(CNC(=O)C=Cc3ccccc3F)cc12 [Example 173, Cc1c(sc2ccc(CNC(═O)C═Cc3ccccc3F)cc12)-c4ccnc(N)n4]	–	–	–	–
< 5	< 5	Cc1c(-c2ccnc(N)n2)sc2ccc(Nc3cncc(O)c3)cc12 [Example 68, 5-(2-(2-Aminopyrimidin-4-yl)-3-methylbenzo[b]thiophen-5-ylamino)pyridin-3-ol]	–	–	–	–
< 5	< 5	CC(=O)Oc1cccc(Cc2ccc3sc(-c4ccnc(N)n4)c(C)c3c2)c1 [Example 28, 3-((2-(2-Aminopyrimidin-4-yl)-3-methylbenzo[b]thiophen-5-yl)methyl)phenyl acetate]	–	–	–	–
< 5	< 5	CC(=O)Nc1cccc(C(=O)NCc2ccc3sc(-c4ccnc(N)n4)c(C)c3c2)c1 [Example 206, CC(═O)Nc1cccc(c1)C(═O)NCc2ccc3sc(c(C)c3c2)-c4ccnc(N)n4]	–	–	–	–
< 5	< 5	CC(=O)Oc1ccccc1C(=O)NCc1ccc2sc(-c3ccnc(N)n3)c(C)c2c1 [Example 211, CC(═O)Oc1ccccc1C(═O)NCc2ccc3sc(c(C)c3c2)-c4ccnc(N)n4]	–	–	–	–
< 5	< 5	Cc1c(-c2ccnc(N)n2)sc2ccc(CNC(=O)c3cc4ccccc4cc3O)cc12 [Example 238, Cc1c(sc2ccc(CNC(═O)c3cc4ccccc4cc3O)cc12)-c5ccnc(N)n5]	–	–	–	–
–	–	Cc1c(-c2ccnc(N)n2)sc2ccc(CNC(=O)c3ccc(F)cc3Cl)cc12 [Example 194, Cc1c(sc2ccc(CNC(═O)c3ccc(F)cc3Cl)cc12)-c4ccnc(N)n4]	–	–	> 5	< 5
< 5	< 5	Cc1c(-c2ccnc(N)n2)sc2ccc(CNC(=O)C=Cc3ccccc3O)cc12 [Example 161, Cc1c(sc2ccc(CNC(═O)C═Cc3ccccc3O)cc12)-c4ccnc(N)n4]	–	–	–	–
< 5	< 5	Cc1c(-c2ccnc(N)n2)sc2ccc(Oc3ccccc3)cc12 [Example 79, 4-(3-Methyl-5-phenoxybenzo[b]thiophen-2-yl)pyrimidin-2-amine]	–	–	–	–
> 5	< 5	COc1cc(C(=O)NCc2ccc3sc(-c4ccnc(N)n4)c(C)c3c2)cc(OC)c1OC [Example 279, COc1cc(cc(OC)c1OC)C(═O)NCc2ccc3sc(c(C)c3c2)-c4ccnc(N)n4]	–	–	–	–
> 5	< 5	CCOc1ccc2ccccc2c1C(=O)NCc1ccc2sc(-c3ccnc(N)n3)c(C)c2c1 [Example 291, CCOc1ccc2ccccc2c1C(═O)NCc3ccc4sc(c(C)c4c3)-c5ccnc(N)n5]	–	–	–	–
< 5	< 5	Cc1c(-c2ccnc(N)n2)sc2ccc(CNC(=O)C=Cc3cccc(O)c3)cc12 [Example 163, Cc1c(sc2ccc(CNC(═O)C═Cc3cccc(O)c3)cc12)-c4ccnc(N)n4]	–	–	–	–

Compound	IC50 [1, 4] [µM]	IC50 [3, 5] [µM]	Peak % Lowering of IOP vs. Control at 0.3% [2] [%]	Peak % Lowering of IOP vs. Control at 1.0% ([2]; compound concentration 1.0%) [%]	IC50 ([1]; ROCK1 IC50, recombinant GST-tagged human ROCK1, luciferase-based ATP consumption) [µM]	IC50 ([3]; ROCK2 IC50, recombinant GST-tagged human ROCK2, luciferase-based ATP consumption) [µM]
CC1=NN(c2ccc(C(=O)NCc3ccc4sc(-c5ccnc(N)n5)c(C)c4c3)cc2)C(=O)C1 [Example 295, CC1═NN(C(═O)C1)c2ccc(cc2)C(═O)NCc3ccc4sc(c(C)c4c3)-c5ccnc(N)n5]	< 5	> 5	–	–	–	–
